Test results from patent US4476122A, “Alkyloximes of 7-amino-thiazolyl-acetamido-cephalosporanic acids” (Roussel Uclaf, priority 1976, dated 1984).
Read-outs that look alike come from different tables or passages of the source.

Columns and labels:
Experiment in all cases: MIC, liquid medium dilution
Assay type in all cases: cell-based
[1] = tested on: Escherichia Coli Resistant Tetracycline ATCC 11 303
Experimental: (§1) The method used was a dilution of a liquid medium where a series of tubes received the same quantity of a sterile nutritive media and increasing doses of the test compounds were placed therein. Then each tube was seeded with a bacterial strain and was incubated for 24 or 48 hours at 37° C. in an oven. The increasing inhibition was determined by transillumination to determine the minimum inhibiting concentration (MIC in μg/ml) and the results are reported in the following Tables.

[2] = tested on: Escherichia Coli Sensitive Tetracycline ATCC 9 637
Experimental: as §1

[3] = tested on: Streptococcus faecalis 99 F 74; conditions: Enterococcus faecalis, read-out: MIC
Experimental: as §1

[4] = tested on: Staphylococcus aureus exp. n° 54 146; conditions: read-out: MIC
Experimental: as §1

[5] = tested on: Streptococcus faecalis 5 432
Experimental: as §1

[6] = tested on: Escherichia Coli Resistant Gentamicine, Tobramycine R 55 123 D
Experimental: as §1

Enterobacter cloacae 681 = conditions: read-out: MIC
Experimental: as §1

[7] = tested on: Streptococcus pyogenes A 561; conditions: read-out: MIC
Experimental: as §1

[8] = tested on: Escherichia Coli Exp. TO26 B6
Experimental: as §1

[9] = tested on: Klebsiella pneumoniae Exp. 52 145
Experimental: as §1

[10] = tested on: Staphylococcus aureus UC 1 128 Pen-Resistant; conditions: read-out: MIC
Experimental: as §1

[11] = tested on: Staphylococcus aureus ATCC 6 538 Pen-Sensitive
Experimental: as §1

[12] = tested on: Serratia Resistant Gentamicine 2 532
Experimental: as §1

[13] = tested on: Salmonella typhimurium 420; conditions: Salmonella enterica
Experimental: as §1

Providencia Du 48 = conditions: read-out: MIC
Experimental: as §1

[14] = tested on: Proteus mirabilis (indol-) A 235
Experimental: as §1

[15] = tested on: Bacillus subtilis ATCC 6 633
Experimental: as §1

[16] = tested on: Klebsiella pneumoniae 2 536 Resistant Gentamicine
Experimental: as §1

Measured: MIC

CO/N=C(\C(=O)NC1C(=O)N2C(C(=O)O)=C(CSc3nnc(C)s3)CS[C@H]12)c1csc(N)n1 (stereo partly drawn) [Example 2, 7-[{2-(2-amino-4-thiazolyl)-2-methoxyiminoacetyl}amino]-3-[(2-methyl-1,3,4-thiadiazol-5-yl)-thiomethyl]-ceph-3-eme-4-carboxylic acid]
0.05 µg/mL: [9]; EXP.52145, 24 h
0.4 µg/mL: [6]; 24 h | [6]; 48 h | [8]; 24 h | [8]; 48 h
≤ 0.02 µg/mL: [7]; A561, 24 h | [7]; A561, 48 h
1 µg/mL: [5]; Enterococcus faecalis, 5432, 24 h | [11]; ATCC6, 24 h | [11]; ATCC6, 48 h | [12]; 24 h | [12]; 48 h | [15]; ATCC6, 48 h | [16]; 48 h
0.6 µg/mL: [2]; ATCC9, 24 h, read-out: MIC | [2]; ATCC9, 48 h | [13]; 24 h, read-out: MIC | [13]; 48 h | [15]; ATCC6, 24 h, read-out: MIC | [16]; 24 h, read-out: MIC
0.2 µg/mL: [1]; ATCC11, 48 h | [14]; 24 h | [14]; 48 h
0.1 µg/mL: [1]; ATCC11, 24 h, read-out: MIC | [9]; EXP.52145, 48 h, read-out: MIC
5 µg/mL: [3]; 99F74, 48 h | Providencia Du 48; DU48, 48 h
40 µg/mL: Enterobacter cloacae 681; Enterobacter cloacae, 681, 24 h | Enterobacter cloacae 681; Enterobacter cloacae, 681, 48 h
2 µg/mL: [3]; 99F74, 24 h | [4]; 24 h | [4]; 48 h | [5]; Enterococcus faecalis, 5432, 48 h, read-out: MIC | [10]; UC1, 24 h | [10]; UC1, 48 h | Providencia Du 48; DU48, 24 h
